From patent publication US4721808A, “Process for purification of crude p-hydroxymethylbenzoic acid” (Amoco Corporation, priority 1987, dated 1988)

Experiment: Solubilities of pHMBA and Impurities in Water
Assay type: physicochemical
Experimental: Since solubilities of p-hydroxymethylbenzoic acid and impurities in solvents depend upon the temperature at which the reaction takes place, increased product production is obtained by increased temperature and pressure.
Solubilities of pHMBA and Impurities in Water
Solubility (g/100 ml H2 O)

| Structure (SMILES) | Solubility at 20° C. | Solubility at 100° C. |
| --- | --- | --- |
| O=Cc1ccc(C(=O)O)cc1 [4-CBA, 4-carboxybenzaldehyde] | < 0.005 g/100 ml H2 O | ~ 0.25 g/100 ml H2 O |
| O=C(O)c1ccc(C(=O)O)cc1 [Terephthalic Acid, terephthalic acid] | < 0.005 g/100 ml H2 O | 0.03 g/100 ml H2 O |
| Cc1ccc(C(=O)O)cc1 [p-Toluic Acid, p-toluic acid] | 0.02 g/100 ml H2 O | 0.22 g/100 ml H2 O |
| O=C(O)c1ccc(CO)cc1 [pHMBA, p-hydroxymethylbenzoic acid] | ~ 0.5 g/100 ml H2 O | ~ 10.0 g/100 ml H2 O |
